In patent US7001770B1, “Calpain inhibitors and their applications” (priority 1998, dated 2006):
Square brackets hold non-standard residues; d marks the D form. Peptide text beside a SMILES is read from it. Nle = CCCC[C@H](N)C(=O)O

System: HLF cells
Experiment: Infectivity: copies of rAd-p53 DNA by PCR
Assay type: cell-based
Procedure: The effects of the use of calpain inhibitors, particularly CI-1, were investigated in their ability to increase the infectivity of the HLF tumor cell line to rAd-p53. HLF cell lines were prepared in substantial accordance with the teaching of example 6 herein. The cells were exposed to two concentrations of rAd-p53 in the presence and absence of 10 μM CI-1. The total number of copies of rAd-p53 DNA were determined by PCR as described in Example 6. The results of these experiments are presented in Table 4 below and in graphical form in FIG. 7 of the attached drawings.
A similar experiment was conducted to determine the effect of pre-treatment of the cells with the calpain inhibitor. The cell lines were prepared as indicated above. In this experiment, one group of cells was pretreated with a 10 μM concentration of CI-1 for a period of 6 hours prior to exposure to the Ad-p53. The control sample was not pretreated. The results of these experiments are presented in Table 5 below and in graphical form in FIG. 7 of the attached drawings.
The following materials were obtained from Perkin Elmer Corporation under Part No. N808-0028: Gene Amp 10× Taqman Buffer A, 25 mM MgCl2, 5 μM Oligonucleotide Primer “A”, 5 μM Oligonucleotide Primer “B”, 5 units/mL AmpliTaq® Gold DNA Polymerase, 10 μM Taqman Probe. Deoxynucleotide Triphosphates, dATP, dCTP, and dGTP are 10 mM. dUTP is 20 mM. […]

CCCC[C@@H](C=O)NC(=O)[C@H](CC(C)C)NC(=O)[C@H](CC(C)C)NC(C)=O [CI-1, N-acetyl-leu-leu-norleucinal] (Ac-Leu-Leu-[Nle]-aldehyde)
increase in intracellular viral DNA (10 μM CI-1, no pre-treatment, viral concentration 1×10^7 and 1×10^8 particles): 50 fold
infectivity of the cells to the virus relative to untreated cells (6 hour pretreatment with 10 μM CI-1, ACN53 3×10^7): approximately 130 times
